In brackets after ≈: the same amount, converted by molar mass. Several values for one entry are separate records, joined by “and”; a condition that tells them apart may be missing. Equal entries are not always repeated. Where two headings read alike, the source gives them in different places. Numbered stars: 1 amine (or outer) side, 2 acyl side, 3 side chain; on linkers, the order of the positions; unused ones are H or OH. Square brackets hold non-standard residues; d marks the D form. Peptide text beside a SMILES is read from it. X1 = CC(C)[C@H](C)N(CC(=O)[*:2])[*:1]; Nspe = C[C@H](NCC(=O)O)c1ccccc1; Nphe = O=C(O)CNCc1ccccc1; Nlys = NCCCCNCC(=O)O
What was measured:
[1] = MTS assay, metabolic inhibition; format: cell-based, mouse
In short: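 NIH/3T3 cells seeded at 5,000 per well, grown a day, then exposed to serially diluted peptoids in HBSS together with MTS reagent. Absorbance at 490 nm read after 3 hours at 37° C.; mean of six replicates.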

E. coli (ATCC 35218) = format: cell-based
In short: (§1)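 MICs by broth microdilution per CLSI M7-A6 in cation-adjusted Mueller-Hinton broth, using 2:1 serial dilutions of peptoid and a bacterial inoculum of 1×10^6 CFU/mL. Values reproducible over three experiments, each with two parallel trials.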

B. subtilis (ATCC 6633) = format: cell-based
In short: as §1

human erythrocytes = test: Hemolysis assay; format: cell-based
In short: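 Human erythrocytes from fresh heparinised blood, 20 vol % in PBS pH 7.4, mixed 1:1 with 2-fold serial peptoid dilutions; PBS as 0% and 0.2 vol % Triton X-100 as 100% hemolysis. Incubated 1 h at 37 °C, diluted, centrifuged 1200 g for 15 min; supernatant A350 read.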

[2] = tested on: Staphylococcus aureus ATCC 29213; format: cell-based; details: for MIC S. aureus ATCC 29213: Table 7A
Procedure: (§2) Antibacterial assays. MICs were determined according to CLSI M7-A6 protocols in a 96-well microtiter plate. In test wells, 50 μL bacterial inoculum (5×10^5 CFU/ml) in Mueller-Hinton broth (MHB) was added to 50 μL peptoid solution in MHB (prepared by 1:2 serial dilutions). Positive controls contained 50 μL inoculum and 50 μL MHB without peptoid. […] MIC values reported were reproducible between three independent experimental replicates, each consisting of two parallel trials. Broad-spectrum antimicrobial susceptibility testing was performed against BSL2 pathogens by Nova Biologicals, Inc. (Conroe, Tex.).
(§3) Broad-spectrum antibacterial assays. MICs of compounds were determined by microdilution procedure in Mueller-Hinton broth (MHB) in accordance with CLSI M7-A6 protocols in a manner similar to that described for the screen antibacterial assays. Inoculated microtiter plates were incubated at 35° C. for 24 hours prior to the result being recorded. Four ATCC strains that were used as standards are recommended by CLSI: Pseudomonas aeruginosa ATCC 27853, Escherichia coli ATCC 25922, Staphylococcus aureus ATCC 29213 and Enterococcus faecalis ATCC 29212. Other strains from the ATCC collection include Proteus vulgaris ATCC 49132, Proteus mirabilis ATCC 35659, Klebsiella pneumoniae ATCC 33495, Enterobacter aerogenes ATCC 35029 and Serratia marcescens ATCC 13880. S. aureus NRS100 (COL) is a well characterized methicillian-resistant S. aureus (MRSA) strain. The strains S. aureus VAN1 and S. aureus VAN2, vancomycin-resistant MRSA strains that were isolated in Michigan and Pennsylvania, were the first vancomycin-resistant strains clinically isolated. S. aureus NRS119 and S. aureus NRS120 are linezolid-resistant isolates from the Network on Antimicrobial Resistance in S. aureus (NARSA) collection. E. faecalis 99 and E. faecium 106 are vancomycin-resistant enterococcal strains.

[3] = tested on: Enterococcus faecalis ATCC 29212; format: cell-based; details: for MIC E. faecalis ATCC 29212: Table 7A
Procedure: as §2, §3

[4] = tested on: Proteus vulgaris ATCC 49132; format: cell-based; details: for MIC P. vulgaris ATCC 49132: Table 7A
Procedure: as §2, §3

[5] = tested on: Escherichia coli ATCC 25922; format: cell-based; details: for MIC E. coli ATCC 25922: Table 7A
Procedure: as §2, §3

Compound	IC50 [1] [µM]	E. coli MIC (E. coli (ATCC 35218); Table 6, ATCC 35218)	B. subtilis MIC (B. subtilis (ATCC 6633); ATCC 6633) [µM]	HD10 (human erythrocytes) [µM]	HD50 (human erythrocytes) [µM]	MIC Staphylococcus aureus ATCC 29213 ([2]; ATCC 29213) [µM]	MIC S. aureus ATCC 29213 [2] [µg/mL]	MIC Enterococcus faecalis ATCC 29212 ([3]; ATCC 29212) [µM]	MIC E. faecalis ATCC 29212 [3] [µg/mL]	MIC Proteus vulgaris ATCC 49132 ([4]; ATCC 49132) [µM]	MIC P. vulgaris ATCC 49132 [4] [µg/mL]	MIC Escherichia coli ATCC 25922 ([5]; ATCC 25922) [µM]	MIC E. coli ATCC 25922 [5] [µg/mL]	further results
CC(C)[C@H](C)N(CC(=O)N(CC(=O)N(CCCCN)CC(=O)N(CC(=O)N(CC(=O)N(CCCCN)CC(=O)N(CC(=O)N(CC(=O)N(CCCCN)CC(=O)N(CC(=O)N(CC(N)=O)[C@@H](C)c1ccccc1)[C@@H](C)C(C)C)[C@@H](C)c1ccccc1)[C@@H](C)C(C)C)[C@@H](C)c1ccccc1)[C@@H](C)C(C)C)[C@@H](C)c1ccccc1)C(=O)CNCCCCN [1-Nsdp2,5,8,11, H-(Nlys-Nsdp-Nspe)4-NH2] (H-[Nlys][X1][Nspe][Nlys][X1][Nspe][Nlys][X1][Nspe][Nlys][X1][Nspe]-NH2)	20	12.5 µM	0.78	111	> 200	4.8 (≈ 8.08 µg/mL)	8 (≈ 4.75 µM)	4.8 (≈ 8.08 µg/mL)	8 (≈ 4.75 µM)	19.0 (≈ 32 µg/mL)	32 (≈ 19 µM)	4.8 (≈ 8.08 µg/mL)	8 (≈ 4.75 µM)	–
C[C@@H](c1ccccc1)N(CC(N)=O)C(=O)CN(C(=O)CN(CCCCN)C(=O)CN(C(=O)CN(C(=O)CN(CCCCN)C(=O)[C@@H]1CCCN1C(=O)CN(C(=O)CN(CCCCN)C(=O)CN(C(=O)CN(C(=O)CNCCCCN)[C@@H](C)c1ccccc1)[C@@H](C)c1ccccc1)[C@@H](C)c1ccccc1)[C@@H](C)c1ccccc1)[C@@H](C)c1ccccc1)[C@@H](C)c1ccccc1 [1-Pro6, H-Nlys-Nspe-Nspe-Nlys-Nspe-L-Pro-(Nlys-Nspe-Nspe)2-NH2] (H-[Nlys][Nspe][Nspe][Nlys][Nspe]P[Nlys][Nspe][Nspe][Nlys][Nspe][Nspe]-NH2)	18	–	1.6	83	> 200	4.6 (≈ 8.07 µg/mL)	–	4.6 (≈ 8.07 µg/mL)	–	18.2 (≈ 31.9 µg/mL)	–	9.1 (≈ 16 µg/mL)	–	E. coli MIC (E. coli (ATCC 35218); ATCC 35218): 12.5 µM; HD10 (10% hemolytic dose) (human erythrocytes; red cells of human, 1 h): 63 µM; HD50 (50% hemolytic dose) (human erythrocytes; red cells of human, 1 h): > 110 µM
C[C@@H](c1ccccc1)N(CC(N)=O)C(=O)CN(C(=O)CN(CCCCN)C(=O)CN(C(=O)CN(C(=O)CN(CCCCN)C(=O)CN(C(=O)CN(C(=O)CN(CCCCN)C(=O)CN(C(=O)CN(C(=O)CNCCCCN)[C@@H](C)c1ccccc1)[C@@H](C)c1ccccc1)[C@@H](C)c1ccccc1)[C@@H](C)c1ccccc1)[C@@H](C)c1ccccc1)[C@@H](C)c1ccccc1)[C@@H](C)c1ccccc1 [compound 1, H-(NLys-Nspe-Nspe)4-NH2] (H-[Nlys][Nspe][Nspe][Nlys][Nspe][Nspe][Nlys][Nspe][Nspe][Nlys][Nspe][Nspe]-NH2)	–	6.25 µM and 6.3 µM	–	–	–	–	–	–	–	–	–	–	–	IC50 ([1]; Table 6, NIH 3T3 mouse fibroblast cells): 5.1 µM; E. coli MIC (E. coli (ATCC 35218); Table 3, ATCC 35218, cation-adjusted MHB): 6.3 µM; B. subtilis MIC (B. subtilis (ATCC 6633); Table 3, ATCC 6633, cation-adjusted MHB): 1.6 µM; B. subtilis MIC (B. subtilis (ATCC 6633); Table 6, ATCC 6633): 1.6 µM; HD10 (10% hemolytic dose) (human erythrocytes; Table 1, human erythrocytes): 21 µM; HD50 (50% hemolytic dose) (human erythrocytes; Table 1, human erythrocytes): 100 µM; HD10 (human erythrocytes; Table 2): 18 µM; HD50 (human erythrocytes; Table 2): 72 µM; HD10 (human erythrocytes; Table 3): 21 µM; HD50 (human erythrocytes; Table 3): 100 µM; HD10 (human erythrocytes; Table 6): 21 µM; HD50 (human erythrocytes; Table 6): 100 µM; MIC Staphylococcus aureus ATCC 29213 ([2]; Table 4, Gram +): 2.2 µM; MIC Enterococcus faecalis ATCC 29212 ([3]; Table 4, Gram +): 2.2 µM; MIC Proteus vulgaris ATCC 49132 ([4]; Table 4, Gram −): 17.6 µM (≈ 32 µg/mL); MIC Escherichia coli ATCC 25922 ([5]; Table 4, Gram −): 2.2 µM (≈ 4 µg/mL)
NCCCCNCC(=O)N(CC(=O)N(CC(=O)N(CCCCN)CC(=O)N(CC(=O)N(CC(=O)N(CCCCN)CC(=O)N(CC(=O)N(CC(=O)N(CCCCN)CC(=O)N(CC(=O)N(CC(N)=O)Cc1ccccc1)Cc1ccccc1)Cc1ccccc1)Cc1ccccc1)Cc1ccccc1)Cc1ccccc1)Cc1ccccc1)Cc1ccccc1 [1achiral, H-(Nlys-Npm-Npm)4-NH2] (H-[Nlys][Nphe][Nphe][Nlys][Nphe][Nphe][Nlys][Nphe][Nphe][Nlys][Nphe][Nphe]-NH2)	16	–	0.78	–	–	4.7 (≈ 8.02 µg/mL)	8 (≈ 4.69 µM)	9.4 (≈ 16 µg/mL)	16 (≈ 9.37 µM)	18.7 (≈ 31.9 µg/mL)	32 (≈ 18.7 µM)	9.4 (≈ 16 µg/mL)	16 (≈ 9.37 µM)	–

Reference: patent US20100036088A1, “Selective poly-N-substituted glycine antibiotics” (priority 2008, published 2010)
